Source: patent US4175081A, “5-Substituted thiadiazole ureas” (priority 1977, dated 1979)

Legend:
Test in all cases: Post-emergence herbicide test
[1] = system: Yellow foxtail grass (YF); type: in vivo, Setaria glauca; details: Setaria, 336 h, 4 lb/acre, two weeks after treatment
Description: Yellow foxtail grass (YF)--Setaria glauca
All crop and weed species were planted individually in 3' plastic pots containing potting soil. Four seeds each of corn, cotton, and snapbeans were seeded to a depth equal to the diameter of the seed. All other species were surface seeded and sprinkled with screened soil in an amount sufficient to cover the seed. Immediately after planting, all pots were watered by sub-irrigation in greenhouse trays. Pots for the pre-emergence phase were seeded one day before treatment.
Planting dates for the post-emergence phase were varied so that all seedlings would reach the desired stage of development simultaneously. The proper stage of seedling development for treatment in the post-emergence phase is as follows:
Compounds were tested at rates of application equivalent to 8 lbs. of actual compound per acre in a spray volume of 38 gallons per acre. Spray hood constants required to deliver the above volume are as follows:
Formulations for spray applications were prepared in 50 ml volumes with the following three components:
Formulations for the 4 lbs/acre rate were prepared by adjusting the amount of active ingredient accordingly.
Spray applications were made in a hood containing a removable belt and fixed spray nozzle. For passage through the spray hood, one pot of each specie (pre-emergence phase) was placed on the rear half of the flat. Treatments were removed to the greenhouse after spraying. Watering during the observation period was done only by sub-irrigation.
Two weeks after treatment, pre- and post-emergence injury or control was visually rated, and the results were as shown in the following tables. Pre-emergence data are provided in TABLE III and post-emergence data are provided in TABLE IV, for compounds having the formula illustrated in TABLE I. Correspondingly, pre-emergence and post-emergence data, respectively, are set forth in TABLES V AND VI, for compounds having the formula illustrated in TABLE II.

Johnson grass (JG) = type: in vivo, Sorgum helepense; details: Sorghum halepense, 336 h, 4 lb/acre, two weeks after treatment
Method in brief: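 Visual injury or control scores taken 2 weeks after a post-emergence spray of pot-grown plants. Application was 8 lbs/acre (or 4 lbs/acre) in 38 gal/acre. Plants were held in the greenhouse with sub-irrigation only.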

Corn (CN) = type: in vivo; details: Zea mays, 336 h, 4 lb/acre, two weeks after treatment
Method in brief: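 Greenhouse seedlings grown in potting soil and sprayed post-emergence at 8 lbs compound/acre (formulations also made for 4 lbs/acre) in 38 gallons/acre spray volume. Watering by sub-irrigation only. Injury or control rated visually two weeks after treatment.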

Cotton (CT) = type: in vivo, Gossypium hirsutum var. DPL smooth leaf; details: Gossypium hirsutum, post-emergence, 336 h; 4 lb/acre; two weeks after treatment
Method in brief: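 This greenhouse post-emergence test measured how well spray treatments controlled cotton. Seedlings of Gossypium hirsutum var. DPL smooth leaf, with expanded cotyledons and a first true leaf 1' in length, were sprayed with 50 ml formulations in a belt-fed spray hood. They were then returned to the greenhouse and watered only by sub-irrigation. Injury was scored visually as % control after two weeks.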

Turnip (TP) = type: in vivo, Brassica sp.; details: Brassica rapa, post-emergence, 336 h, two weeks after treatment; for pest or weed control at 4483.4 g/ha: 4 lb/acre
Method in brief: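 A greenhouse post-emergence herbicide test on turnip. Seeds were sown on the surface of potting soil in 3' plastic pots, lightly covered with screened soil and watered from below. Planting was timed so seedlings had 1 or 2 true leaves above the cotyledons at spraying, done in a hood with a fixed nozzle. Control or injury was scored by eye after two weeks.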

Bean (BN) = type: in vivo, Phaseolus vulgaris var. Black Valentine; details: Phaseolus vulgaris, post-emergence, 336 h; 4 lb/acre; two weeks after treatment
Method in brief: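 Bean seedlings (Phaseolus vulgaris var. Black Valentine) were grown in potting soil in 3' pots until the primary leaves expanded. They were then sprayed under a hood with a removable belt and fixed nozzle, using 50 ml formulations. Afterward they were returned to the greenhouse and watered only by sub-irrigation. Percent control was judged visually two weeks after treatment.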

Barnyard grass (BG) = type: in vivo; details: Echinochloa crus-galli, 336 h, 4 lb/acre, two weeks after treatment
Method in brief: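 Greenhouse pot-grown barnyard grass seedlings sprayed post-emergence at 8 lbs active compound per acre (some at 4 lbs/acre) in 38 gallons per acre, then sub-irrigated. Injury or control rated visually two weeks after treatment.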

Crabgrass (CG) = type: in vivo, Digitaria sanquinalis; details: Digitaria sanguinalis, post-emergence, 336 h; 4 lb/acre; two weeks after treatment
Method in brief: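 Crabgrass (Digitaria sanquinalis) was surface seeded individually in 3' plastic pots of potting soil, covered with screened soil, and watered by sub-irrigation in greenhouse trays. Planting was staggered so seedlings reached the target stage together. Post-emergence sprays were applied in a hood with a removable belt and fixed nozzle, and control was visually rated two weeks after treatment.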

Amaranth pigweed (PW) = type: in vivo, Amaranthus retroflexus; details: 336 h, 2 lb/acre, two weeks after treatment
Method in brief: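 Visual injury or control ratings were made two weeks after spraying, with greenhouse watering by sub-irrigation only. Treatment was post-emergence, when pigweed seedlings had 1 or 2 true leaves, at 8 lbs active compound per acre (4 lbs/acre formulations also made) in a 38 gallons-per-acre spray volume.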

Structure (SMILES)	pest or weed control at 4483.4 g/ha [1]	pest or weed control at 4483.4 g/ha (Johnson grass (JG))	pest or weed control at 4483.4 g/ha (Corn (CN))	pest or weed control at 4483.4 g/ha (Cotton (CT))	pest or weed control at 4483.4 g/ha (Turnip (TP))	pest or weed control at 4483.4 g/ha (Bean (BN))	pest or weed control at 4483.4 g/ha (Barnyard grass (BG))	pest or weed control at 4483.4 g/ha (Crabgrass (CG))	pest or weed control at 2241.7 g/ha (Amaranth pigweed (PW))	pest or weed control at 2241.7 g/ha (Turnip (TP); 2 lb/acre)
CCC(C)Sc1nnc(NC(=O)NC)s1 (stereo not drawn) [Example 48]	30%	60%	30%	100%	70%	50%	40%	70%	–	–
C=C(C)CSc1nnc(NC(=O)NC)s1 [Example 49]	40%	40%	40%	100%	90%	50%	40%	80%	100%	70%
